From PMC8468421, “Synthesis and Biological Evaluation of 1,2,3-Triazole Tethered Thymol-1,3,4-Oxadiazole Derivatives as Anticancer and Antimicrobial Agents” (Pharmaceuticals, 2021)

Tests used:
[1] = test system: S. aureus (ATCC 29213); assay: Antimicrobial activity, agar well zone of inhibition, S. aureus; assay type: cell-based, Staphylococcus aureus; conditions: 10 μL of 10 mg/mL in 50% DMSO per well, overnight 37 °C, --- = no zone of inhibition; for zone of inhibition at 10000 µg/mL: Staphylococcus aureus, ATCC29213
Protocol: (§1) The antimicrobial activity of the final compounds was performed by reported methods.The bacterial strains, E. coli (Gram negative), S. aureus (Gram positive), and fungi, Candida albicans, were used for the study. Luria broth Agar and Sabouraud Dextrose Agar were prepared into a petri dish using 25 mL of autoclaved media; 100 μL of diluted broth of freshly prepared E. coli, S. aureus, and C. albicans were spread on Luria Broth Agar and Sabouraud Agar plates, respectively. Then, 7 wells of 50 μL capacity were punched on each plate. Samples 5–18 (10 μL of 10 mg/mL standard prepared in 50% DMSO) were placed in each plate’s well in different plate sets. All the plates were incubated for overnight at 37 °C in an incubator shaker. The inhibition zone was calculated in triplicate.

[2] = test system: C. albicans (ATCC 10231); assay: Antifungal activity, agar well zone of inhibition, C. albicans; assay type: cell-based, Candida albicans; conditions: 10 μL of 10 mg/mL in 50% DMSO per well, overnight 37 °C, --- = no zone of inhibition; for zone of inhibition at 10000 µg/mL: Candida albicans, ATCC10231
Protocol: as §1

[3] = test system: E. coli (ATCC 31218); assay: Antimicrobial activity, agar well zone of inhibition, E. coli; assay type: cell-based, Escherichia coli; conditions: 10 μL of 10 mg/mL in 50% DMSO per well, overnight 37 °C, --- = no zone of inhibition; for zone of inhibition at 10000 µg/mL: Escherichia coli, ATCC31218
Protocol: as §1

[4] = test system: MCF-7; assay: Antiproliferative activity, MTT assay, MCF-7; conditions: for IC50: Homo sapiens, MCF7, read-out: Cytotoxicity IC50 MCF-7; for times active relative to 5-florouracil, MCF-7: (IC50 18.74 μM)
Source text: (§2) The compounds were screened on breast (MCF-7), liver (HepG2), and colorectal (HCT-116) cancer cells, obtained from American Type culture Collection (ATCC); 0.1% of DMSO was used as a vehicle control.

[5] = test system: HepG2; assay: Antiproliferative activity, MTT assay, HepG2; conditions: for IC50: Homo sapiens, HepG2, read-out: Cytotoxicity IC50 HepG2
Source text: as §2

[6] = test system: HCT-116; assay: Antiproliferative activity, MTT assay, HCT-116; conditions: Homo sapiens, HCT-116, read-out: Cytotoxicity IC50 HCT-116
Source text: as §2

[7] = target: Thymidylate synthase (TS) (Homo sapiens, UniProt P04818); assay: Thymidylate synthase (TS) enzymatic assay
Thymidylate synthase (TS), sequence (P04818 whole entry): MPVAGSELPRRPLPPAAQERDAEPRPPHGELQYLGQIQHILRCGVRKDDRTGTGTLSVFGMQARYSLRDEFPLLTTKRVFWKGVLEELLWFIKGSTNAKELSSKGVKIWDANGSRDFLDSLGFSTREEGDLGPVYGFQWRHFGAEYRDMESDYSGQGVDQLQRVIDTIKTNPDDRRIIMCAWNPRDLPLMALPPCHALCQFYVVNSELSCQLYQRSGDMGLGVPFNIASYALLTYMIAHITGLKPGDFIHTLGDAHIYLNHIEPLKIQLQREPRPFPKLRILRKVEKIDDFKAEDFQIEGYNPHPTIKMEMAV

Row | melting point [°C] | IC50 [7] [µM] | SMILES | zone of inhibition S. aureus [1] [mm] | zone of inhibition at 10000 µg/mL [1] [mm] | zone of inhibition C. albicans [2] [mm] | zone of inhibition at 10000 µg/mL [2] [mm] | zone of inhibition E. coli [3] [mm] | zone of inhibition at 10000 µg/mL [3] [mm] | IC50 [4] [µM] | IC50 [5] [µM] | IC50 [6] [µM] | fold active relative to 5-FU, HepG2 [5] [fold] | times active relative to 5-florouracil, MCF-7 [4] [times]
1 | 58 to 60 |  | C#CCSc1nnc(COc2cc(C)ccc2C(C)C)o1 [Compound 5, 2-((2-isopropyl-5-methylphenoxy)methyl)-5-(prop-2-ynylthio)-1,3,4-oxadiazole] | 9 ± 0.30 | 9 | 10 ± 0.32 | 10 | 12 ± 0.32 | 12 |  |  |  |  | 
2 |  |  | O=c1[nH]cc(F)c(=O)[nH]1 [Compound 5-FU, 5-fluorouracil, reference compound] |  |  |  |  |  |  | 18.7 | 28.7 | 30.7 |  | 
3 | 88 to 90 |  | Cc1ccc(C(C)C)c(OCc2nnc(SCc3cn(-c4ccccc4)nn3)o2)c1 [Compound 6, 4-((5-((2-isopropyl-5-methylphenoxy)methyl)-1,3,4-oxadiazol-2-ylthio)methyl)-1-phenyl-1H-1,2,3-triazole] | 10 ± 0.40 | 10 |  |  | 14 ± 0.38 | 14 | 22.5 | 41.6 | 36.5 |  | 
4 | 81 to 83 | 3.52 ± 1.2 | COc1ccccc1-n1cc(CSc2nnc(COc3cc(C)ccc3C(C)C)o2)nn1 [Compound 7, 4-((5-((2-isopropyl-5-methylphenoxy)methyl)-1,3,4-oxadiazol-2-ylthio)methyl)-1-(2-methoxyphenyl)-1H-1,2,3-triazole] | 12 ± 0.34 | 12 |  |  | 12 ± 0.34 | 12 | 2.4 | 1.8 | 3.1 | 16 | 
5 | 166 to 168 | 3.98 ± 1.1 | Cc1ccc(C(C)C)c(OCc2nnc(SCc3cn(-c4cccc(C(=O)O)c4)nn3)o2)c1 [Compound 8, 3-(4-((5-((2-isopropyl-5-methylphenoxy)methyl)-1,3,4-oxadiazol-2-ylthio)methyl)-1H-1,2,3-triazol-1-yl)benzoic acid] | 10 ± 0.40 | 10 |  |  |  |  | 3.9 | 5.3 | 5.8 |  | 
6 | 86 to 88 | 1.95 ± 0.9 | Cc1ccc(C(C)C)c(OCc2nnc(SCc3cn(-c4ccccc4O)nn3)o2)c1 [Compound 9, 2-(4-((5-((2-isopropyl-5-methylphenoxy)methyl)-1,3,4-oxadiazol-2-ylthio)methyl)-1H-1,2,3-triazol-1-yl)phenol] | 12 ± 0.34 | 12 | 10 ± 0.032 | 10 | 12 ± 0.36 | 12 | 1.1 | 1.4 | 2.6 | 20 | 17
7 | 90 to 92 | 2.18 ± 1.7 | Cc1ccc(C(C)C)c(OCc2nnc(SCc3cn(-c4ccccc4Cl)nn3)o2)c1 [Compound 10, 4-((5-((2-isopropyl-5-methylphenoxy)methyl)-1,3,4-oxadiazol-2-ylthio)methyl)-1-(2-chlorophenyl)-1H-1,2,3-triazole] |  |  |  |  |  |  | 1.3 | 2.5 | 3.8 |  | 15
8 | 92 to 94 | 4.24 ± 0.8 | Cc1ccc(C(C)C)c(OCc2nnc(SCc3cn(-c4cccc(Cl)c4)nn3)o2)c1 [Compound 11, 4-((5-((2-isopropyl-5-methylphenoxy)methyl)-1,3,4-oxadiazol-2-ylthio)methyl)-1-(3-chlorophenyl)-1H-1,2,3-triazole] |  |  |  |  |  |  | 4.9 | 18.6 | 16.3 |  | 
9 | 84 to 86 |  | Cc1ccc(C(C)C)c(OCc2nnc(SCc3cn(-c4ccc(Cl)cc4Cl)nn3)o2)c1 [Compound 12, 4-((5-((2-isopropyl-5-methylphenoxy)methyl)-1,3,4-oxadiazol-2-ylthio)methyl)-1-(2,4-dichlorophenyl)-1H-1,2,3-triazole] |  |  | 12 ± 0.036 | 12 | 10 ± 0.38 | 10 | 59.4 | 40.6 | 47.3 |  | 
10 | 114 to 116 |  | Cc1ccc(C(C)C)c(OCc2nnc(SCc3cn(-c4ccc(Br)cc4)nn3)o2)c1 [Compound 13, 4-((5-((2-isopropyl-5-methylphenoxy)methyl)-1,3,4-oxadiazol-2-ylthio)methyl)-1-(4-bromophenyl)-1H-1,2,3-triazole] |  |  |  |  | 11 ± 0.34 | 11 | 65.3 | 69.4 | 78.7 |  | 
11 | 72 to 74 |  | Cc1ccc(C(C)C)c(OCc2nnc(SCc3cn(-c4cccc(Br)c4)nn3)o2)c1 [Compound 14, 4-((5-((2-isopropyl-5-methylphenoxy)methyl)-1,3,4-oxadiazol-2-ylthio)methyl)-1-(3-bromophenyl)-1H-1,2,3-triazole] |  |  |  |  | 9 ± 0.32 | 9 | 41.8 | 23.7 | 32.8 |  | 
12 | 118 to 120 |  | Cc1ccc(C(C)C)c(OCc2nnc(SCc3cn(-c4ccc(F)cc4)nn3)o2)c1 [Compound 15, 4-((5-((2-isopropyl-5-methylphenoxy)methyl)-1,3,4-oxadiazol-2-ylthio)methyl)-1-(4-florophenyl)-1H-1,2,3-triazole] |  |  |  |  |  |  | 23.2 | 49.2 | 31.4 |  | 
13 | 130 to 132 |  | Cc1ccc(C(C)C)c(OCc2nnc(SCc3cn(-c4ccc(F)cc4F)nn3)o2)c1 [Compound 16, 4-((5-((2-isopropyl-5-methylphenoxy)methyl)-1,3,4-oxadiazol-2-ylthio)methyl)-1-(2,4-diflorophenyl)-1H-1,2,3-triazole] | 15±0.38 | 15 |  |  | 14 ± 0.34 | 14 | 34.5 | 58.3 | 56.2 |  | 
14 | 124 to 126 |  | Cc1ccc(C(C)C)c(OCc2nnc(SCc3cn(C(=O)Nc4ccccc4C)nn3)o2)c1 [Compound 17, 4-((5-((2-isopropyl-5-methylphenoxy)methyl)-1,3,4-oxadiazol-2-ylthio)methyl)-N-o-tolyl-1H-1,2,3-triazole-1-carboxamide] | 12 ± 0.34 | 12 |  |  | 12 ± 0.32 | 12 | 9.39 | 39.1 | 17.3 |  | 
15 | 98 to 100 |  | Cc1ccc(C(C)C)c(OCc2nnc(S(=O)(=O)Cc3cn(-c4cccc(Br)c4)nn3)o2)c1 [Compound 18, 4-((5-((2-isopropyl-5-methylphenoxy)methyl)-1,3,4-oxadiazol-2-ylsulfonyl)methyl)-1-(3-bromophenyl)-1H-1,2,3-triazole] |  |  |  |  |  |  | 98.2 | 95.7 | 118 |  | 
16 |  |  | COc1cccc2c1C(=O)c1c(O)c3c(c(O)c1C2=O)C[C@@](O)(C(=O)CO)C[C@@H]3O[C@H]1C[C@H](N)[C@H](O)[C@H](C)O1 [Dox, doxorubicin, reference compound] |  |  |  |  |  |  | 1.2 | 1.8 | 2.5 |  | 
17 |  |  | OC(Cn1cncn1)(Cn1cncn1)c1ccc(F)cc1F [Fluconazole, reference compound] |  |  |  | 16 ± 0.6 |  |  |  |  |  |  | 
18 |  |  | CO[C@@H]1[C@@H](OC(N)=O)[C@@H](O)[C@H](Oc2ccc3c(O)c(NC(=O)c4ccc(O)c(CC=C(C)C)c4)c(=O)oc3c2C)OC1(C)C [Novobiocin, reference compound] |  | 10 ± 0.24 |  |  |  |  |  |  |  |  | 
19 |  | 7.26 ± 1.1 | Nc1nc2[nH]cc(CCc3ccc(C(=O)N[C@@H](CCC(=O)O)C(=O)O)cc3)c2c(=O)[nH]1 [Pemetrexed, reference compound] |  |  |  |  |  |  |  |  |  |  | 
